Values after ≈ are worked out from the molar mass of the structure shown.
Columns and labels:
[1] = test system: Mycobacterium tuberculosis; test: Antimycobacterial activity against drug-resistant Mycobacterium tuberculosis; type: functional
[2] = test system: Mycobacterium tuberculosis; test: Antimycobacterial activity against extensively drug-resistant Mycobacterium tuberculosis; type: functional

`CCNC(=O)Nc1nc2nc(-c3cnc(C(C)(C)O)nc3)c(F)c([C@H]3CCCO3)c2[nH]1` was tested, and the MIC [1] was 0.08 µg/mL (≈ 0.186 µM).
In the case of `Cc1cc(/C=C/c2ccc3cc(N(C)C)ccc3[n+]2C)c(C)n1-c1ccccc1.Cc1cc(/C=C/c2ccc3cc(N(C)C)ccc3[n+]2C)c(C)n1-c1ccccc1.O=C(O)c1cc2ccccc2c(Cc2c(O)c(C(=O)O)cc3ccccc23)c1O`, the MIC99 [1] is reported as 1.55 µg/mL.
Work on `O=[N+]([O-])c1cn2c(n1)OC[C@@H](OCc1ccc(OC(F)(F)F)cc1)C2` [PRETOMANID] yielded an MIC [1] of 0.03 µg/mL (≈ 0.0835 µM).
Work on `C[C@@H](O)[C@H]1C(=O)N2C(C(=O)O)=C(SC3CN(C4=NCCS4)C3)[C@H](C)[C@H]12` [TEBIPENEM] yielded an MIC [2] of 0.3 µM (≈ 0.115 µg/mL).

Source: ChEMBL document CHEMBL5126519, “Tuberculosis drug discovery: Progression and future interventions in the wake of emerging resistance” (Eur J Med Chem, 2022)
